These results are taken from ChEMBL document CHEMBL3507680, “University of Dundee, Gates Library screen for HepG2 cell viability”.

Where “and” joins values, the source holds several entries; their conditions need not be identical. Equal values may be shown once. Bounds are passed on as bounds.

Data set [1] in a line: Human HepG2 cell viability assay in 384 well format. The format is toxicity, cell-based. The arrangement: dose 125 nL, time 70.5 hour; concentration not given beside the values. Particulars: HepG2 cells, read-out: Inhibition.
Data set [2] can be described thus: Human HepG2 cell viability dose-response assay. The class given is toxicity, cell-based.

Take `CCCc1nc2c(c(C)c(C)n2Cc2ccccn2)c(N)c1CC`: the cytotoxicity at 70.5 h in data set [1] stood at 80.2%. Also, in data set [2], the BOTTOM is 13.8 and 17.26; the HILLSLOPE was 1.43 and 1.529; the TOP is listed as 100; the pXC50 is 5.166 and 5.178.

Turning to `COc1cc(NC(=O)C2CC(=O)N(c3cccc(Br)c3)C2)ncn1` (centres undefined), in data set [1], the cytotoxicity at 70.5 h stood at 91.5%. Further, in data set [2], the BOTTOM is 13.61 and 20.88; the HILLSLOPE was 5.533 and 3.735; the TOP was 100.7 and 101.2; the pXC50 was 5.491 and 5.506.

With `c1cncc(CN2CCCn3nnc(CN4CCCCC4)c3C2)c1`, the cytotoxicity at 70.5 h in data set [1] worked out at 65.6%. Further, in data set [2], the BOTTOM is given as 0, the HILLSLOPE is on record as 0, the TOP is listed as 0 and the pXC50 is on record as below 4.53.

Turning to `O=C(C[C@@H]1COC[C@H]2CN(C3CCOCC3)C[C@@H]12)Nc1cnccn1`, in data set [1], the cytotoxicity at 70.5 h amounted to 76.4%. In addition, in data set [2], the BOTTOM was 0, the HILLSLOPE was determined as 0, the TOP is reported as 0 and the pXC50 was below 4.53.

Regarding `COC[C@H]1CCC[C@]12CN(Cc1cccc(C)n1)CCO2`, the cytotoxicity at 70.5 h in data set [1] is 63.1%. In data set [2], this compound came in with a BOTTOM of 0, an HILLSLOPE of 0, a TOP of 0 and a pXC50 below 4.53.

For `O=C(Cn1cc(-c2ccccc2)ncc1=O)Nc1nc(C2CC2)n[nH]1`, the cytotoxicity at 70.5 h in data set [1] worked out at 99.8%. For the same compound, in data set [2], the BOTTOM was -8.692 and -5.853; the HILLSLOPE is 2.68 and 2.241; the TOP is 101 and 102.4; the pXC50 is 5.614 and 5.594.

For the compound `CCS(=O)(=O)N1CCc2ccc(NC(=O)Nc3cccc(SC)c3)cc21`, the cytotoxicity at 70.5 h in data set [1] is 63.9%. Moreover, in data set [2], the BOTTOM was -6.506 and -6.611; the HILLSLOPE is 1.266 and 1.157; the TOP is 100; the pXC50 is 5.029 and 4.966.

Regarding `CSc1ccc(NC(=O)Nc2ccc3c(c2)N(S(C)(=O)=O)CC3)cc1`, the cytotoxicity at 70.5 h in data set [1] was found to be 68.5%. In data set [2], the BOTTOM is -10.17 and -8.332; the HILLSLOPE is 0.8924 and 0.8709; the TOP came out at 100; the pXC50 was 4.975 and 4.922.

Consider `CCc1ccc(-c2cc(C(F)(F)F)nc(N3CCC(N)CC3)n2)cc1`, for which the cytotoxicity at 70.5 h in data set [1] is 101%. For the same compound, in data set [2], the BOTTOM was 0.817 and 1.062; the HILLSLOPE was 8.779 and 6.129; the TOP was 102.2 and 102.5; the pXC50 is 5.566 and 5.542.

Consider `Cc1cccc(C)c1Nc1noc2c1CN(C(=O)c1ccnn1C)CC2`, for which, in data set [1], the cytotoxicity at 70.5 h turned out to be 69.8%. Further, in data set [2], the BOTTOM was -5.714 and -2.53; the HILLSLOPE was 1.878 and 1.75; the TOP worked out at 100; the pXC50 was 4.825 and 4.807.

As to `Cc1cccc(CN2CCCC2c2cccc(Nc3nccs3)n2)c1` (centres undefined), the cytotoxicity at 70.5 h in data set [1] stood at 84.1%. In addition, in data set [2], the HILLSLOPE is 2.773 and 1.557; the TOP was 82.62 and 100; the pXC50 was 6.512 and 6.485.

Turning to `CC(C)Nc1cc(-c2c[nH]nc2C2CCN(C(=O)C3CC3)C2)ccn1` (centres undefined), in data set [1], the cytotoxicity at 70.5 h is 96.7%. In data set [2], the HILLSLOPE was 3.535 and 2.719; the TOP is 97.3 and 97.69; the pXC50 is 6.519 and 6.486.

Regarding `CC(C)CNc1cc(-c2c[nH]nc2C2CCN(C(=O)C3CC3)C2)ccn1` (centres undefined), the cytotoxicity at 70.5 h in data set [1] amounted to 95.1%. For the same compound, in data set [2], the BOTTOM was -0.825 and -1.513; the HILLSLOPE was 7.855 and 3.586; the TOP was 97.39 and 97.86; the pXC50 was 6.385 and 6.436.

Turning to `COc1ccc(CNC(Cc2ccsc2)c2ccc(C)cn2)c(OC)c1` (centres undefined), in data set [1], the cytotoxicity at 70.5 h stood at 85.3%. In data set [2], the HILLSLOPE was 2.726 and 2.464; the TOP is 91.22 and 91.65; the pXC50 was 5.292 and 5.344.

Turning to `O=C(c1cccc2cccnc12)N1CC[C@@]2(CCCO2)[C@@H](O)C1`, the cytotoxicity at 70.5 h in data set [1] turned out to be 74.5%. In addition, in data set [2], the BOTTOM is -1.598 and -1.635; the HILLSLOPE was 1.904 and 1.967; the TOP worked out at 100; the pXC50 is 4.773 and 4.744.

Turning to `CC(C)c1cc(NC(=O)Cn2cnc3ccccc3c2=O)[nH]n1`, the cytotoxicity at 70.5 h in data set [1] amounted to 104%. In addition, in data set [2], the BOTTOM was -4.443 and -6.453; the HILLSLOPE is 2.259 and 2.3; the TOP was 101.3 and 101.4; the pXC50 was 5.61 and 5.595.

`CC(C)OCCN1CCC(Nc2nccnc2C#N)CC1`: the cytotoxicity at 70.5 h in data set [1] came to 62.9%. In data set [2], the BOTTOM is -6.463 and -12.72; the HILLSLOPE was 1.108 and 0.9682; the TOP was 100; the pXC50 was 5.071 and 5.086.

Turning to `CC(C)N(C)C(=O)c1ccc(CNc2ccncc2Cl)cc1`, the cytotoxicity at 70.5 h in data set [1] was found to be 74.8%. In data set [2], the BOTTOM is listed as 0, the HILLSLOPE turned out to be 0, the TOP was 0 and the pXC50 is given as below 4.53.

With `CC(C)n1ccc(C(=O)NCC(O)c2c(Cl)cccc2Cl)n1` (centres undefined), the cytotoxicity at 70.5 h in data set [1] was found to be 65.8%. Further, in data set [2], the BOTTOM is recorded as 0, the HILLSLOPE is recorded as 0, the TOP is listed as 0 and the pXC50 was below 4.53.

For `CN(C(=O)[C@H]1CSCN1C(=O)OC(C)(C)C)C1CC1`, in data set [1], the cytotoxicity at 70.5 h was found to be 73.6%. In addition, in data set [2], the BOTTOM stood at 0, the HILLSLOPE is 0, the TOP is recorded as 0 and the pXC50 is below 4.53.

With `Cc1cc(C)cc(C(=O)NCCCNc2ncccn2)c1`, in data set [1], the cytotoxicity at 70.5 h turned out to be 101%. Besides, in data set [2], the BOTTOM was -7.868 and -9.506; the HILLSLOPE was 17.28 and 6.436; the TOP was 100.1 and 99.9; the pXC50 is recorded as 5.413.

Regarding `CC(C)c1ccc(CN2C(=O)C3(CCNCC3)Nc3ccccc32)cc1`, in data set [1], the cytotoxicity at 70.5 h was found to be 105%. Besides, in data set [2], the BOTTOM is -7.959 and -9.531; the HILLSLOPE is 9.317 and 9.377; the TOP was 102.3 and 101.9; the pXC50 was 4.989 and 5.005.

Turning to `Clc1ccccc1C1(c2ccnc(C3CCCC3)n2)CCNCC1`, the cytotoxicity at 70.5 h in data set [1] worked out at 73%. For the same compound, in data set [2], the BOTTOM is 17.52 and 27.16; the HILLSLOPE was 2.801 and 2.528; the TOP was 108.2 and 108.3; the pXC50 is 5.086 and 5.104.

In the case of `COCc1noc(-c2ccc(N(C)Cc3ncccc3C)nc2)n1`, the cytotoxicity at 70.5 h in data set [1] is 73.3%. Further, in data set [2], the BOTTOM was -13.69 and -12.76; the HILLSLOPE is 1.85 and 1.799; the TOP came to 100; the pXC50 stood at 5.092.

`COc1ccccc1N1CCN(C(=O)CSCC2CC2)C(C)C1` (centres undefined): the cytotoxicity at 70.5 h in data set [1] was found to be 97.2%. In data set [2], this compound yielded a BOTTOM of 0, an HILLSLOPE of 0, a TOP of 0 and a pXC50 below 4.53.

Regarding `CC1(C)Cc2nc(C(C)(C)C)ncc2C(NC(=O)C2(N)CC2)C1` (centres undefined), the cytotoxicity at 70.5 h in data set [1] was found to be 105%. In data set [2], this compound displayed a BOTTOM of 0, an HILLSLOPE of 0, a TOP of 0 and a pXC50 below 4.53.

As for `C=Cc1ccc(CN2C(=O)C3(CCNCC3)Nc3ccccc32)cc1`, the cytotoxicity at 70.5 h in data set [1] worked out at 102%. Also, in data set [2], the BOTTOM was -4.877 and -3.437; the HILLSLOPE is 10.74 and 12.71; the TOP came out at 102; the pXC50 was 5.033 and 5.016.

Regarding `CCC(O)CN1CCN(C(=O)c2cccn2Cc2ccccc2)CC1` (centres undefined), in data set [1], the cytotoxicity at 70.5 h was -10.3%.

For the compound `Fc1cccc(-c2nc(CN3CCCCC3Cn3cncn3)co2)c1` (centres undefined), the cytotoxicity at 70.5 h in data set [1] is -15.4%.

As for `CN(Cc1ccc(F)cc1)C(=O)NCc1nnc2n1CCCCC2`, the cytotoxicity at 70.5 h in data set [1] was found to be 33.6%.

Regarding `COCCCN1CCc2cncnc2C1`, the cytotoxicity at 70.5 h in data set [1] is -18.2%.

Turning to `O=C(c1cccc2c1OCO2)N1CCCC1c1noc(C2CC2)n1` (centres undefined), the cytotoxicity at 70.5 h in data set [1] came out at 31.3%.

In the case of `Cc1nc(Nc2nccs2)cc(C2CCCN2)n1.Cl` (centres undefined), the cytotoxicity at 70.5 h in data set [1] stood at 101%. In addition, in data set [2], the BOTTOM is 11.4 and 11.68; the HILLSLOPE was 4.445 and 3.614; the TOP is 100.1 and 100.5; the pXC50 is 5.52 and 5.57.

For `COc1nn(C)c2c1CCCN(C(=O)c1ccc3c(c1)OCO3)C2.O=C(O)C(F)(F)F`, the cytotoxicity at 70.5 h in data set [1] is 77.9%. Further, in data set [2], the BOTTOM is on record as 0, the HILLSLOPE is 0, the TOP is 0 and the pXC50 is below 4.53.

For the compound `COc1c(-c2ccc(O)cc2)oc2cc(O)cc(O)c2c1=O` [ISOKAEMPFERIDE], in data set [1], the cytotoxicity at 70.5 h was -8.89%.

On to `CCCNC(=O)C(C)Nc1ccc(OCC)cc1` (centres undefined) [PROPETAMIDE], for which, in data set [1], the cytotoxicity at 70.5 h was -8.27%.
